# Assays:
# [1] = system: Staphylococcus aureus ATCC 43300; test: Broth microdilution MIC/MBC; conditions: ATCC43300 / MRSA
# [2] = system: Bacillus cereus ATCC 10876; test: Broth microdilution MIC/MBC; conditions: Bacillus cereus, ATCC10876
# [3] = system: Micrococcus luteus ATCC 10240; test: Broth microdilution MIC/MBC; conditions: Micrococcus luteus, ATCC10240
# [4] = system: Staphylococcus epidermidis ATCC 12228; test: Broth microdilution MIC/MBC; conditions: ATCC12228
# [5] = system: L929 cell line; test: MTT cytotoxicity assay; format: cell-based, mouse; conditions: for cytotoxicity: L929, 24 h culture
# Procedure: (§1) Among all the newly synthesized compounds, four compounds designated as: 14, 20, 21 and 27 were selected for further testing of their cytotoxic properties at the doses of 10, 25, 50, 75 and 100 µM. The cytotoxic properties of the above compounds were tested on the cancer cell lines, i.e., A549 (ECACC 86012804) (non-small-cell lung cancer), T47D (ECACC 85102201) (breast cancer), HeLa (ATCC® CCL-2™) (cervical cancer) and normal line L929 (NCTC clone 929, ATCC® CCL-1™) (mouse fibroblasts) using the MTT test for 24- and 48 h cultures.
# (§2) A549 (ECACC 86012804) (non-small-cell lung cancer) and T47D (ECACC 85102201) (breast cancer) were obtained from ECACC and propagated in Dulbecco’s Minimal Essential Medium, supplemented with 2 mM of glutamine, antibiotics ([…] streptomycin, 1% of 100 U/L penicillin) and 10% Fetal Bovine Serum. HeLa (ATCC® CCL-2™) (cervical cancer) and L929 (NCTC clone 929, ATCC® CCL-1™) (mouse fibroblasts) cell lines were obtained from ATCC and propagated in the Eagle Minimal Essential Medium supplemented with antibiotics ([…] streptomycin, 1% of 100 U/L penicillin) and with 10% and 5% FBS, respectively. The cell line was routinely grown in 75 cm^2 tissue culture flasks and kept in an incubator (humidified atmosphere of 5% CO2 at 37 °C). All examined cell lines were tested against mycoplasma contamination with microbiological assays.
# (§3) The cell viability of tested compounds (14, 20, 21 and 27) was assessed by the MTT assay. In brief, the exponentially growing cells were plated in 100 μL/well in 96-well plates. After 24 h culturing, the cells were treated with different concentrations of compounds (range 10–100 μM). After 24 and 48 h of incubation, 10 μL of 5 mg/mL MTT was added to each well and the plates were incubated at 37 °C for additional 4 h. The medium was subsequently removed, the purple-colored precipitates of formazan were dissolved in 100 μL of DMSO. The color absorbance was recorded at 570 nm using a BioTek model EPOCH ELISA plate reader. All experiments were performed in triplicate. The absorbance values were in the range of linearity of the Lambert–Beer law.
# [6] = system: Staphylococcus aureus ATCC 29213; test: Broth microdilution MIC/MBC; conditions: ATCC29213
# [7] = system: HeLa cell line; test: MTT cytotoxicity assay; format: cell-based
# Procedure: as §1, §2, §3
# [8] = system: A549 cell line; test: MTT cytotoxicity assay; format: cell-based
# Procedure: as §1, §2, §3
# [9] = system: T47D cell line; test: MTT cytotoxicity assay; format: cell-based
# Procedure: as §1, §2, §3
smiles,measurement,setting,value
"O=C(N/N=C/c1cc(I)cc(I)c1O)c1ccccc1I [Compound 14, N-[(3,5-diiodo-2-hydroxyphenyl)methylidene]-2-iodobenzohydrazide]",MBC,[1],1000 µg/mL
same,MIC,[1],250 µg/mL
same,MBC,[2],250 µg/mL
same,MIC,[2],125 µg/mL
same,MBC,[3],125 µg/mL
same,MIC,[3],62.5 µg/mL
same,MBC,[4],250 µg/mL
same,MIC,[4],125 µg/mL
same,cell proliferation,"[5]; L929, 24h, 10 µM, Repeat No 1",94%
same,cell proliferation,"[5]; L929, 24h, 10 µM, Repeat No 2",94%
same,cell proliferation,"[5]; L929, 24h, 25 µM, Repeat No 1",100%
same,cell proliferation,"[5]; L929, 24h, 25 µM, Repeat No 2",89%
same,cell proliferation,"[5]; L929, 24h, 50 µM, Repeat No 1",85%
same,cell proliferation,"[5]; L929, 24h, 50 µM, Repeat No 2",73%
same,cell proliferation,"[5]; L929, 24h, 75 µM, Repeat No 1",77%
same,cell proliferation,"[5]; L929, 24h, 75 µM, Repeat No 2",69%
same,cell proliferation,"[5]; L929, 24h, 100 µM, Repeat No 1",91%
same,cell proliferation,"[5]; L929, 24h, 100 µM, Repeat No 2",97%
same,cytotoxicity,[5]; dose of 75 µM,around 40%
same,cytotoxicity,[5]; tested doses 10–100 µM,approximately 20%
same,cell proliferation,"[5]; L929, 48h, 10 µM, Repeat No 1",75%
same,cell proliferation,"[5]; L929, 48h, 10 µM, Repeat No 2",99%
same,cell proliferation,"[5]; L929, 48h, 25 µM, Repeat No 1",106%
same,cell proliferation,"[5]; L929, 48h, 25 µM, Repeat No 2",99%
same,cell proliferation,"[5]; L929, 48h, 50 µM, Repeat No 1",83%
same,cell proliferation,"[5]; L929, 48h, 50 µM, Repeat No 2",98%
same,cell proliferation,"[5]; L929, 48h, 75 µM, Repeat No 1",83%
same,cell proliferation,"[5]; L929, 48h, 75 µM, Repeat No 2",89%
same,cell proliferation,"[5]; L929, 48h, 100 µM, Repeat No 1",94%
same,cell proliferation,"[5]; L929, 48h, 100 µM, Repeat No 2",101%
same,MBC,[6],500 µg/mL
same,MIC,[6],125 µg/mL
same,cell proliferation,"[7]; 24h, 10 µM, Repeat No 1",88%
same,cell proliferation,"[7]; 24h, 10 µM, Repeat No 2",81%
same,cell proliferation,"[7]; 24h, 25 µM, Repeat No 1",93%
same,cell proliferation,"[7]; 24h, 25 µM, Repeat No 2",91%
same,cell proliferation,"[7]; 24h, 50 µM, Repeat No 1",88%
same,cell proliferation,"[7]; 24h, 50 µM, Repeat No 2",82%
same,cell proliferation,"[7]; 24h, 75 µM, Repeat No 1",98%
same,cell proliferation,"[7]; 24h, 75 µM, Repeat No 2",89%
same,cell proliferation,"[7]; 24h, 100 µM, Repeat No 1",82%
same,cell proliferation,"[7]; 24h, 100 µM, Repeat No 2",89%
same,cell proliferation,"[7]; 48h, 10 µM, Repeat No 1",76%
same,cell proliferation,"[7]; 48h, 10 µM, Repeat No 2",79%
same,cell proliferation,"[7]; 48h, 25 µM, Repeat No 1",82%
same,cell proliferation,"[7]; 48h, 25 µM, Repeat No 2",89%
same,cell proliferation,"[7]; 48h, 50 µM, Repeat No 1",85%
same,cell proliferation,"[7]; 48h, 50 µM, Repeat No 2",84%
same,cell proliferation,"[7]; 48h, 75 µM, Repeat No 1",77%
same,cell proliferation,"[7]; 48h, 75 µM, Repeat No 2",71%
same,cell proliferation,"[7]; 48h, 100 µM, Repeat No 1",81%
same,cell proliferation,"[7]; 48h, 100 µM, Repeat No 2",93%
same,cell proliferation,"[8]; A549, 24h, 10 µM, Repeat No 1",86%
same,cell proliferation,"[8]; A549, 24h, 10 µM, Repeat No 2",77%
same,cell proliferation,"[8]; A549, 24h, 25 µM, Repeat No 1",103%
same,cell proliferation,"[8]; A549, 24h, 25 µM, Repeat No 2",98%
same,cell proliferation,"[8]; A549, 24h, 50 µM, Repeat No 1",89%
same,cell proliferation,"[8]; A549, 24h, 50 µM, Repeat No 2",84%
same,cell proliferation,"[8]; A549, 24h, 75 µM, Repeat No 1",87%
same,cell proliferation,"[8]; A549, 24h, 75 µM, Repeat No 2",89%
same,cell proliferation,"[8]; A549, 24h, 100 µM, Repeat No 1",82%
same,cell proliferation,"[8]; A549, 24h, 100 µM, Repeat No 2",74%
same,cell proliferation,"[8]; A549, 48h, 10 µM, Repeat No 1",93%
same,cell proliferation,"[8]; A549, 48h, 10 µM, Repeat No 2",79%
same,cell proliferation,"[8]; A549, 48h, 25 µM, Repeat No 1",87%
same,cell proliferation,"[8]; A549, 48h, 25 µM, Repeat No 2",91%
same,cell proliferation,"[8]; A549, 48h, 50 µM, Repeat No 1",91%
same,cell proliferation,"[8]; A549, 48h, 50 µM, Repeat No 2",83%
same,cell proliferation,"[8]; A549, 48h, 75 µM, Repeat No 1",89%
same,cell proliferation,"[8]; A549, 48h, 75 µM, Repeat No 2",89%
same,cell proliferation,"[8]; A549, 48h, 100 µM, Repeat No 1",90%
same,cell proliferation,"[8]; A549, 48h, 100 µM, Repeat No 2",96%
same,cell proliferation,"[9]; 24h, 10 µM, Repeat No 1",86%
same,cell proliferation,"[9]; 24h, 10 µM, Repeat No 2",89%
same,cell proliferation,"[9]; 24h, 25 µM, Repeat No 1",71%
same,cell proliferation,"[9]; 24h, 25 µM, Repeat No 2",74%
same,cell proliferation,"[9]; 24h, 50 µM, Repeat No 1",79%
same,cell proliferation,"[9]; 24h, 50 µM, Repeat No 2",75%
same,cell proliferation,"[9]; 24h, 75 µM, Repeat No 1",87%
same,cell proliferation,"[9]; 24h, 75 µM, Repeat No 2",80%
same,cell proliferation,"[9]; 24h, 100 µM, Repeat No 1",79%
same,cell proliferation,"[9]; 24h, 100 µM, Repeat No 2",73%
same,cell proliferation,"[9]; 48h, 10 µM, Repeat No 1",71%
same,cell proliferation,"[9]; 48h, 10 µM, Repeat No 2",79%
same,cell proliferation,"[9]; 48h, 25 µM, Repeat No 1",81%
same,cell proliferation,"[9]; 48h, 25 µM, Repeat No 2",79%
same,cell proliferation,"[9]; 48h, 50 µM, Repeat No 1",81%
same,cell proliferation,"[9]; 48h, 50 µM, Repeat No 2",79%
same,cell proliferation,"[9]; 48h, 75 µM, Repeat No 1",72%
same,cell proliferation,"[9]; 48h, 75 µM, Repeat No 2",69%
same,cell proliferation,"[9]; 48h, 100 µM, Repeat No 1",74%
same,cell proliferation,"[9]; 48h, 100 µM, Repeat No 2",69%
